One assay relates to A-MLV. As to the kind of experiment: microbe, parasite or virus in culture. Type of assay: cell-based. The settings on record: Murine leukemia virus.
The test system of the next assay is HIV-1ADA. As to the kind of experiment: CD4-dependent CCR5-tropic HIV-1 cell-cell transmission assay. Type of assay: cell-based. The conditions noted are these: Ghost X4/R5 and MOLT-4/HIV-1ADA.
The test system of assay [1] is YU2 core gp120. The experiment in a line: Competitive SPR: sCD4 binding to immobilized YU2 core gp120. The settings on record: NBD-11021 12.5-200 μM. More on the design: species or system HIV-1.
The subject of assay [2] is YU2 core gp120. As to the kind of experiment: SPR: binding of YU2 core gp120 to captured mAb 17b in presence of compounds. The arrangement: species or system HIV-1. The settings on record: sCD4 15-fold excess, compounds 50-fold excess. On the technique in general: SPR reads the build-up and loss of mass on a sensor chip optically.
The subject of the next assay is VSV-G. The experiment in a line: microbe, parasite or virus in culture. Type of assay: cell-based. The conditions noted are these: Human immunodeficiency virus 1.
For assay [3], the system named is HIV-1ADA (CCR5-tropic) pseudovirus. The experiment in a line: Single-cycle infection assay in U87-CD4-CCR5 cells.
Assay [4] deals with HIV-1HXB2 (CXCR4-tropic) pseudovirus. As to the kind of experiment: Single-cycle infection assay in U87-CD4-CXCR4 cells. The settings on record: U87-CD4-CXCR4, HIV-1HXB2.
In the next assay the test system is HIV-2 isolates. As to the kind of experiment: Antiviral activity against HIV-2. Type of assay: cell-based. The settings on record: Table S2.
Another assay deals with SHIVSF162P3. As to the kind of experiment: Antiviral activity against SHIV. Type of assay: cell-based. The conditions noted are these: Table S2.
Assay [5] concerns lab-adapted and primary HIV-1 isolates. The experiment in a line: microbe, parasite or virus in culture. Type of assay: cell-based. The settings on record: Human immunodeficiency virus 1, PBMC, laboratory strain BaL, subtype B, R5.
Assay [6] relates to fusion between MAGI-CCR5 and HL 2/3 cells. As to the kind of experiment: HIV-1 cell-cell fusion assay. The conditions noted are these: read-out: IC50, cell-cell fusion assay. Type of assay: cell-based.
Assay [7] relates to laboratory-adapted HIV-1 strains. As to the kind of experiment: microbe, parasite or virus in culture. Type of assay: cell-based.
The next assay has as its system SIVmac186. As to the kind of experiment: Antiviral activity against SIV. Type of assay: cell-based. The settings on record: Table S2.
Assay [8] relates to YU2 core gp120. The experiment in a line: Competitive SPR: VRC-PG04 binding to immobilized YU2 core gp120. More on the design: species or system HIV-1. The settings on record: at higher ratios of NBD-11021 versus VRC-PG04.
For another assay, the system named is HIV-1IIIB. As to the kind of experiment: CD4-dependent CXCR4-tropic HIV-1 cell-cell transmission assay. The conditions noted are these: Ghost X4/R5 and H9/HIV-1IIIB. Type of assay: cell-based.
Assay [9] has as its target HIV-1 reverse transcriptase (RT) (Human immunodeficiency virus type 1 group M subtype B, UniProt P12497). The experiment in a line: HIV-1 reverse transcriptase.
A further assay deals with HIV-1 Env pseudoviruses. Type of assay: cell-based. The settings on record: TZM-bl, HIV-1HXB2.
The mark [10] stands for this setting: Human immunodeficiency virus 1, MT2, MT-2, HIV-1IIIB.

Read-outs that look alike come from different tables or passages of the source.

The IC50 is the concentration that inhibits the measured activity by half. In the case of `Cc1nc(C(NC(=O)c2ccc(-c3ccc(Cl)cc3)[nH]2)C2CCCCN2)sc1CO` (mixture of isomers) [NBD-11021, 5-(4-Chlorophenyl)-N-((5-(hydroxymethyl)-4-methylthiazol-2-yl)-(piperidin-2-yl)methyl)-1H-pyrrole-2-carboxamide], the IC50 in the assay on A-MLV was 7500 ± 200 nM; in the assay with VSV-G, 10000 ± 500 nM; in assay [3] (Pseudovirus, U87/CD4/CCR5, U87-CD4-CCR5, HIV-1ADA), 1700 ± 200 nM; in [3] (U87/CD4/CCR5, read-out: IC50 against CCR5- and CXCR4-tropic HIV-1) it was 1700 to 2400 nM; in assay [4], 2400 ± 100 nM; in assay [5], 3700 ± 400 nM. Further, the IC50 amounted to 9800 nM in assay [6]; 1500 ± 60 nM in [7] (setting [10]); 7300 ± 600 nM in assay [7] (Human immunodeficiency virus 1, MT2, laboratory strain RF, subtype B, MT-2, R5X4). Moreover, the “inhibition of CCR5-tropic cell-cell transmission (in words)” value in the assay with HIV-1ADA is given as “showed inhibition”. In the assay on YU2 core gp120 [1], the “competition with sCD4 for binding to gp120 (in words)” value is reported as “competes with CD4 to bind to gp120 in a dose-dependent manner”. For the same molecule, the “enhancement of mAb 17b binding to YU2 core gp120 (in words)” value in the assay on YU2 core gp120 [2] is given as “no enhancement”. Further, in the assay with HIV-2 isolates, the “activity against HIV-2 isolates (in words)” value is listed as “poor activity”. In the assay with SHIVSF162P3, the “activity against SHIVSF162P3 (in words)” value is listed as “poor activity”. The “activity against SIVmac186 (in words)” value in the assay on SIVmac186 is reported as “poor activity”. Moreover, the “competition with VRC-PG04 for binding to gp120 (in words)” value in the assay with YU2 core gp120 [8] is listed as “effectively competed with VRC-PG04”. In the assay on HIV-1IIIB, the “inhibition of CXCR4-tropic cell-cell transmission (in words)” value is reported as “inhibited cell–cell transmission effectively”.

For the molecule `Cc1cn([C@H]2C[C@H](N=[N+]=[N-])[C@@H](CO[P@](=O)(O)O[P@](=O)(O)OP(=O)(O)O)O2)c(=O)[nH]c1=O` [AZT-TP], in assay [9], the 50% inhibitory concentration (IC50) was determined as 8 nM.

In the case of `COc1ccnc2[nH]cc(C(=O)C(=O)N3CCN(C(=O)c4ccccc4)C[C@H]3C)c12` [BMS-378806], in assay [6] (MAGI-CCR5 and HL 2/3 cells), the IC50 is 14 nM.

With `Cc1nc(C(NC(=O)c2ccc(-c3ccc(Cl)cc3)[nH]2)C2CCCCN2)sc1CO` (centres unmarked) [NBD-11021A, 5-(4-Chlorophenyl)-N-((5-(hydroxymethyl)-4-methylthiazol-2-yl)-(piperidin-2-yl)methyl)-1H-pyrrole-2-carboxamide], the concentration for half-maximal inhibition (IC50) in assay [4] turned out to be 3000 ± 400 nM; in assay [7] (MT-2, HIV-1IIIB), 1300 ± 200 nM.

Take `Cc1nc(C(NC(=O)c2ccc(-c3ccc(Cl)cc3)[nH]2)C2CCCCN2)sc1CO` (centres unmarked) [NBD-11021B, 5-(4-Chlorophenyl)-N-((5-(hydroxymethyl)-4-methylthiazol-2-yl)-(piperidin-2-yl)methyl)-1H-pyrrole-2-carboxamide]: the IC50 worked out at 1800 ± 50 nM in assay [7] (setting [10]) and 2400 ± 100 nM in the assay with HIV-1 Env pseudoviruses.

(Values after PMC4676410 (Journal of medicinal chemistry, 2015).)
